Laboratory results from patent US9416126B2, “Compounds inhibiting leucine-rich repeat kinase enzyme activity” (Merck Sharp & Dohme Corp., priority 2013, dated 2016).

molecular target: LRRK2(G2019S mutation, GST-LRRK2(amino acids 970-2527)) (Homo sapiens (Human), UniProt Q5S007, G2019S); test: LRRK2 Km ATP LanthaScreen Assay; type: biochemical; details: Examples N1-N25
Description: Unless otherwise noted, all LRRK2 IC50 data presented in tables refers to the LRRK2 Km ATP LanthaScreen™ Assay that is described in the Biological Assay section.
The data presented for the 5 mM and Km ATP LanthaScreen™ Assay represents mean IC50 values based on several test results and may have reasonable. deviations depending on the specific conditions and reagents used. Reagents for the LRRK2 5 mM and Km ATP LanthaScreen™ Assay were purchased from Life Technologies Corporation.
LRRK2 Km ATP LanthaScreen™ Assay
a) 400 nl of a 1:2.15 serial dilution of test compound(98 μM top assay concentration) is spotted via Labcyte Echo to certain wells in a 384 well black, untreated plate. Control wells contain 400 nl of either DMSO or 400 nl of a known inhibitor in DMSO.
b) 10 μl of a 2.5 nM LRRK2(G2019S mutation, GST-LRRK2(amino acids 970-2527)) enzyme solution in 1× assay buffer(50 mM Tris pH 8.5, 10 mM MgCl2, 0.01% Brij-35, 1 mM EGTA, 2 mM DTT, 0.05 mM NaVO4) is added to all wells.
c) A 30 minute room temperature incubation is followed by addition of 10 μl of 800 nM fluorescein labeled LRRKtide peptide substrate and 184 μM ATP solution in 1× assay buffer to all wells.
d) After a 60 minute room temperature incubation, 20 μl of TR-FRET Dilution Buffer(Invitrogen PV3756B) containing 4 nM Tb-labeled anti-phospho LRRKtide antibody and 20 mM EDTA is added to all wells.
e) Plates are incubated at room temperature for 1 hour and read on an Envision™ multi-mode plate reader with LanthaScreen™ settings. Results are analysed using Assay Data Analyzer.

Sequence of LRRK2(G2019S mutation, GST-LRRK2(amino acids 970-2527)) (Q5S007 970-2527 G2019S): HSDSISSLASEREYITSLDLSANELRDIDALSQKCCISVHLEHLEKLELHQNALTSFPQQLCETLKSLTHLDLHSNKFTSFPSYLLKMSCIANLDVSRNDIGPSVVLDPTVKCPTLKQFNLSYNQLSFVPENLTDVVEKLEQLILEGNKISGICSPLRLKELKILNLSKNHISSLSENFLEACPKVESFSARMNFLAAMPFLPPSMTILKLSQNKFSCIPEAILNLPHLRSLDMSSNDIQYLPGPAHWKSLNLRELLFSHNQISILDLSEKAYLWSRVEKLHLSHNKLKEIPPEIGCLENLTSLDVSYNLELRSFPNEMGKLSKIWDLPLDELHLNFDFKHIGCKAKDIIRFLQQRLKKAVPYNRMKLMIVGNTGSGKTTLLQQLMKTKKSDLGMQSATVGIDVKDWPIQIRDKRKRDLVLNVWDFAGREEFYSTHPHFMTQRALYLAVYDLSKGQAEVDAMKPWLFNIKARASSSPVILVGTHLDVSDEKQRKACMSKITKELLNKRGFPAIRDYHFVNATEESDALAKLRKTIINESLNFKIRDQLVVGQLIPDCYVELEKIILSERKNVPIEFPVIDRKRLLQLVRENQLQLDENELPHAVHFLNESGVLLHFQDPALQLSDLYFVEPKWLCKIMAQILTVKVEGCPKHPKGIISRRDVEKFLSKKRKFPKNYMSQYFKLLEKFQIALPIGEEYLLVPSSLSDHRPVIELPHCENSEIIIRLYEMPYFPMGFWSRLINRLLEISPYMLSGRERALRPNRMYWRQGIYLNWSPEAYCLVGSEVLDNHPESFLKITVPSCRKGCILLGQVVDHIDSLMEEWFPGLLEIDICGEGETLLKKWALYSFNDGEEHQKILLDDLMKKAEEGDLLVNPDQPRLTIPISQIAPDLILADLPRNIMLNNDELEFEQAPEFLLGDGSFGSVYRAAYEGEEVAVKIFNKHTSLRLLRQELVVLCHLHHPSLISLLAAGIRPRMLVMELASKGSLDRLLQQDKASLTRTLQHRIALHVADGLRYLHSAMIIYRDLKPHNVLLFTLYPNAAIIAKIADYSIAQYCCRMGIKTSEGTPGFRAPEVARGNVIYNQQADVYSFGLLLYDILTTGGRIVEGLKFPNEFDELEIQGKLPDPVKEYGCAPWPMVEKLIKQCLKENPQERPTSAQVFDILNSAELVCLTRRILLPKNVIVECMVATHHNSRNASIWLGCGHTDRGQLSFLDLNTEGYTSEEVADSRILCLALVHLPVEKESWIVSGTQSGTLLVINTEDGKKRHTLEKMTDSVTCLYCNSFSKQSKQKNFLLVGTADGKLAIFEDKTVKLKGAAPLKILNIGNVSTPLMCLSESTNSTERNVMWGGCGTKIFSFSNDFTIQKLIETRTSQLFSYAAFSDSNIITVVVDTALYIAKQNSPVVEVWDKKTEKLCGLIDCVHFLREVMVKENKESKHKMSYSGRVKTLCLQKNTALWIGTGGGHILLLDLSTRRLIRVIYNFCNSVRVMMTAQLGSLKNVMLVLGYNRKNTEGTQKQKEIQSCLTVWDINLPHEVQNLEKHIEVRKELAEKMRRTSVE

`CC(C)Oc1cc2c(-c3cc(N4C[C@H](O)[C@@H](N(C)C)C4)ncn3)n[nH]c2cc1F` [Example N18] and `CC(C)Oc1cc2c(-c3cc(N4[C@H](C)COC[C@@H]4C)ncn3)n[nH]c2cc1F` [Example N25] are within 1.5-fold of each other in IC50: 7.9 nM for the first, 5.4 nM for the second.

Going from `CC(C)Oc1cc2c(-c3cc(N4CCC(n5cccn5)C4)ncn3)n[nH]c2cc1F` (stereo not shown) [Example N13] to `CC(C)Oc1cc2c(-c3cc(N4CCS(=O)(=O)CC4)ncn3)n[nH]c2cc1F` [Example N19], the IC50 rises from 6.1 nM to 24 nM (3.9-fold). The first is the more potent here.

`COCC(=O)N1CCN(c2cc(-c3n[nH]c4cc(F)c(OC(C)C)cc34)ncn2)CC1` [Example N2] and `CCOC(=O)N1CCN(c2cc(-c3n[nH]c4cc(F)c(OC(C)C)cc34)ncn2)CC1` [Example N21] are within 1.5-fold of each other in IC50: 5.6 nM for the first, 6.1 nM for the second.

`CC(C)Oc1cc2c(-c3cc(N4CCN(C5CCS(=O)(=O)C5)CC4)ncn3)n[nH]c2cc1F` (stereo not shown) [Example N4] and `CC(C)Oc1cc2c(-c3cc(N4CCC(F)(CO)CC4)ncn3)n[nH]c2cc1F` [Example N20] are within 1.5-fold of each other in IC50: 2.5 nM for the first, 2.3 nM for the second.

same assay, conditions: Examples O1-O23

Compound `COC[C@H](C)Oc1ccc2[nH]nc(-c3cc(N4C[C@H](OC)[C@@H](O)C4)ncn3)c2c1` [Example O21] has an IC50 of 19.8 nM.

same assay, conditions: Examples P1-P18

First: COc1ccc(-c2ccc3[nH]nc(-c4cc(N5CCOCC5)ncn4)c3c2)cn1 [Example P17]
Second: COc1cnc(-c2ccc3[nH]nc(-c4cc(N5CCOCC5)ncn4)c3c2)cn1 [Example P10]
The IC50 of the first is 8.7-fold lower: 31.2 nM for the first, 272 nM for the second.

Going from `O=S(=O)(c1ccc(-c2ccc3[nH]nc(-c4cc(N5CCOCC5)ncn4)c3c2)cc1)N1CCCC1` [Example P9] to `O=C(NCCO)c1ccc(-c2ccc3[nH]nc(-c4cc(N5CCOCC5)ncn4)c3c2)cc1` [Example P18], the IC50 falls from 914 nM to 154 nM (5.9-fold). The second is the more potent here.

same assay, conditions: Examples Q1-Q20

`C[C@@H]1CN(c2cc(-c3n[nH]c4ccc(-c5ccnc(C#N)c5)cc34)ncn2)C[C@H](C)O1` [Example Q11] and `COc1cc(-c2ccc3[nH]nc(-c4cc(N5C[C@@H](C)O[C@@H](C)C5)ncn4)c3c2)ccn1` [Example Q15] are within 1.5-fold of each other in IC50: 172 nM for the first, 155 nM for the second.

For `C[C@@H]1CN(c2cc(-c3n[nH]c4ccc(-c5ccc6ncnn6c5)cc34)ncn2)C[C@H](C)O1` [Example Q1], the IC50 was 240 nM.

same assay, conditions: Km ATP (184 μM ATP solution), G2019S LRRK2, mean IC50

`CC(C)Oc1ccc2[nH]nc(-c3cc(N4CCC(C(C)(C)O)CC4)ncn3)c2c1` [Example K18] and `CC(C)Oc1ccc2[nH]nc(-c3cc(N4CCCC(C(C)(C)O)C4)ncn3)c2c1` (stereo not shown) [Example K13] are within 1.5-fold of each other in IC50: 5.4 nM for the first, 6.9 nM for the second.

Going from `CN1CCN(c2cc(-c3n[nH]c4ccc(-c5cnn(C)c5)cc34)ncn2)CC1` [Example A6] to `Cn1cc(-c2ccc3[nH]nc(-c4cc(N5CCS(=O)(=O)CC5)ncn4)c3c2)cn1` [Example M18], the IC50 rises from 2.85 nM to 22.4 nM (7.9-fold). The first is the more potent here.

Going from `CC(C)Oc1cc2c(-c3cc(N4CCN(CCO)CC4)ncn3)n[nH]c2cc1F` [Example D62] to `CCC(=O)N1CCN(c2cc(-c3n[nH]c4cc(F)c(OC(C)C)cc34)ncn2)CC1` [Example D64], the IC50 rises from 1.65 nM to 4.32 nM (2.6-fold).

Going from `CC(C)Oc1ccc2[nH]nc(-c3cc(N4CCN(C(C)C)C(=O)C4)ncn3)c2c1` [Example D29] to `CC(C)Oc1cc2c(-c3cc(N4CCN(C(C)C)C(=O)C4)ncn3)n[nH]c2cc1F` [Example D69], the IC50 falls from 5.28 nM to 3.09 nM (1.7-fold). The second is the more potent here.

First: CN(C)[C@H]1CN(c2cc(-c3n[nH]c4ccc(-c5cnn(C)c5)cc34)ncn2)C[C@@H]1O [Example M17]
Second: C[C@@H]1CN(c2cc(-c3n[nH]c4ccc(-c5cnn(C)c5)cc34)ncn2)C[C@H](C)O1 [Example A11]
The IC50 of the first is 9.6-fold higher: 13.5 nM for the first, 1.4 nM for the second.

Compared with `CO[C@H]1CN(c2cc(-c3n[nH]c4ccc(OC(C)C)cc34)ncn2)C[C@@H]1O` [Example J8], `CC(C)Oc1ccc2[nH]nc(-c3cc(N4CCCCC4)ncn3)c2c1` [Example J3] is 1.8-fold lower in IC50: 18.6 nM for the first, 10.6 nM for the second. The second is the more potent here.

Compared with `CCOc1ccc2[nH]nc(-c3cc(N4CCN(C)CC4)ncn3)c2c1` [Example F4], `CCOc1ccc2[nH]nc(-c3cc(N4CCN(CC)CC4)ncn3)c2c1` [Example F8] is 2.1-fold lower in IC50: 26.9 nM for the first, 12.6 nM for the second. The second is the more potent here.

First: FC1(F)CCN(c2cc(-c3n[nH]c4ccc(-c5cccnc5)cc34)ncn2)CC1 [U]
Second: c1cncc(-c2ccc3[nH]nc(-c4cc(N5CCOCC5)ncn4)c3c2)c1 [Example T1]
The IC50 of the first is 2-fold higher: 11.1 nM for the first, 5.5 nM for the second.

Going from `CC(C)Oc1cc2c(-c3cc(N4CCN(C)[C@@H](C)C4)ncn3)n[nH]c2cc1F` [Example D50] to `CC(C)Oc1cc2c(-c3cc(N4CCN(C)C(=O)C4)ncn3)n[nH]c2cc1F` [Example D70], the IC50 rises from 1.2 nM to 2.19 nM (1.8-fold). The first is the more potent here.

Going from `CCN1CCN(c2cc(-c3n[nH]c4cc(F)c(OC(C)C)cc34)ncn2)CC1=O` [Example D36] to `CCCN1CCN(c2cc(-c3n[nH]c4cc(F)c(OC(C)C)cc34)ncn2)CC1=O` [Example D66], the IC50 falls from 4.16 nM to 2.77 nM (1.5-fold).

Compared with `Cn1cc(-c2cc3c(-c4cc(N5CC[C@H](CF)C5)ncn4)n[nH]c3cc2F)cn1` [Example L2], `Cn1cc(-c2cc3c(-c4cc(N5CC[S+]([O-])CC5)ncn4)n[nH]c3cc2F)cn1` [Example L8] is 9.6-fold higher in IC50: 13.6 nM for the first, 131 nM for the second.

`CC(C)Oc1cc2c(-c3cc(N4CCNC(=O)C4)ncn3)n[nH]c2cc1F` [Example D37] and `CC(C)Oc1cc2c(-c3cc(N4CCOCC4)ncn3)n[nH]c2cc1F` [Example D26] are within 1.5-fold of each other in IC50: 2.89 nM for the first, 2.39 nM for the second.

Going from `CC(C)=Cc1ccc2[nH]nc(-c3cc(N4CCO[C@H](C)C4)ncn3)c2c1` [Example S1] to `CCOc1ccc2[nH]nc(-c3cc(N4CCO[C@@H](C)C4)ncn3)c2c1` [Example F13], the IC50 rises from 16.4 nM to 41.2 nM (2.5-fold).

`CCN1CCN(c2cc(-c3n[nH]c4ccc(OCCOC)cc34)ncn2)CC1` [Example G8] and `COCCOc1ccc2[nH]nc(-c3cc(N4CCN(C(C)=O)CC4)ncn3)c2c1` [Example G13] are within 1.5-fold of each other in IC50: 97 nM for the first, 128 nM for the second.

Compared with `CC(C)=Cc1ccc2[nH]nc(-c3cc(N4CCN(C)CC4)ncn3)c2c1` [Example S3], `CC(C)Oc1ccc2[nH]nc(-c3cc(N4CC[S+]([O-])CC4)ncn3)c2c1` [Example J13] is 1.6-fold lower in IC50: 32.9 nM for the first, 21 nM for the second.

Going from `COc1ccc2[nH]nc(-c3cc(N4C[C@H](F)[C@@H](F)C4)ncn3)c2c1` [Example E2] to `COc1ccc2[nH]nc(-c3cc(N4C[C@@H](C)O[C@@H](C)C4)ncn3)c2c1` [Example E3], the IC50 falls from 68.6 nM to 29.3 nM (2.3-fold).

`Cn1cc(-c2ccc3[nH]nc(-c4cc(N5CCC(F)(F)C5)ncn4)c3c2)cn1` [Example M26] and `CO[C@@H]1CCN(c2cc(-c3n[nH]c4ccc(-c5cnn(C)c5)cc34)ncn2)C1` [Example M1] are within 1.5-fold of each other in IC50: 3.7 nM for the first, 4 nM for the second.

`Cc1nc2c(o1)CCN(c1cc(-c3n[nH]c4cc(F)c(-c5cnn(C)c5)cc34)ncn1)C2` [Example L17] and `Cn1cc(-c2cc3c(-c4cc(N5CCN6C(=O)OCC6C5)ncn4)n[nH]c3cc2F)cn1` (stereo not shown) [Example L18] are within 1.5-fold of each other in IC50: 53.4 nM for the first, 64.2 nM for the second.

First: Cn1cc(-c2cc3c(-c4cc(N5CCC(F)(C#N)CC5)ncn4)n[nH]c3cc2F)cn1 [Example L19]
Second: CC(C)Oc1ccc2[nH]nc(-c3cc(N4CCC(O)(C(F)(F)F)CC4)ncn3)c2c1 [Example K12]
The IC50 of the first is 3.8-fold higher: 39.4 nM for the first, 10.5 nM for the second. The second is the more potent here.

Compared with `COC[C@H](C)Oc1ccc2[nH]nc(-c3cc(N4CCC5(CC4)CC(=O)N(C)C5)ncn3)c2c1` [Example H10], `CCc1nnc2n1CCN(c1cc(-c3n[nH]c4ccc(OC(C)C)cc34)ncn1)C2` [Example J19] is 3-fold higher in IC50: 2.87 nM for the first, 8.6 nM for the second. The first is the more potent here.

same assay, conditions: Table U

First: COc1ccncc1-c1ccc2[nH]nc(-c3cc(N4C[C@@H](C)O[C@@H](C)C4)ncn3)c2c1 [Example U26]
Second: C[C@@H]1CN(c2cc(-c3n[nH]c4ccc(-c5cn[nH]c5)cc34)ncn2)C[C@H](C)O1 [Example U27]
The IC50 of the first is 1.8-fold lower: 0.75 nM for the first, 1.35 nM for the second.
